In paper PMC7036753, “Lipidated Analogs of the LL-37-Derived Peptide Fragment KR12—Structural Analysis, Surface-Active Properties and Antimicrobial Activity” (International Journal of Molecular Sciences, 2020):
In brackets after ≈: the same amount, converted by molar mass. Peptide text beside a SMILES is read from it. * marks the point of attachment. Lauroyl = CCCCCCCCCCCC(=O)*; Decanoyl = CCCCCCCCCC(=O)*; Hexanoyl = CCCCCC(=O)*; Butyryl = CCCC(=O)*

Legend:
[1] = test system: S. aureus ATCC 6538; assay type: cell-based, Staphylococcus aureus; details: ATCC 6538, 18 h
Protocol: (§1) Examination of antimicrobial activity of the test compounds was conducted on reference strains of bacteria assigned to ESKAPE group of pathogens: Enterococcus faecium ATCC 700221, Klebsiella pneumoniae ATCC 700603, Acinetobacter baumannii ATCC BAA-1605, Pseudomonas aeruginosa ATCC 9027, Klebsiella aerogenes ATCC 13048 (formerly Enterobacter aerogenes) and reference strains of Staphylococcus aureus, namely: S. aureus ATCC 25923, S. aureus ATCC 6538, S. aureus ATCC 33591 (MRSA), S. aureus ATCC 9144 and S. aureus ATCC 12598. All the strains were stored at −80 °C in Roti®-Store cryo vials (Carl Roth GmbH, Karlsruhe, Germany) and before the tests were transferred into fresh Mueller-Hinton Medium (BioMaxima, Lublin, Poland) and incubated for 24 h at 37 °C. Subsequently, each bacterial inoculum was seeded on Mueller-Hinton Agar plates (BioMaxima) and incubated again for 24 h. The cultures prepared in this way were used in further antimicrobial assays and prepared as described above. The MIC values were determined by the broth microdilution method according to Clinical and Laboratory Standards Institute Protocol. For this purpose, initial inoculums of bacteria (0.5 × 10^5 colony forming unit (CFU)/mL) in Mueller–Hinton Broth were exposed to the ranging concentrations of compounds (0.5–256 µg/mL) and incubated for 18 h at 37 °C. The experiments were conducted on 96-well microtiter plates, with a final volume of 100 µL. Cell densities were adjusted spectrophotometrically (Multiskan™ GO Microplate Spectrophotometer, Thermo Scientific) at 600 nm. The MICs were taken as the lowest drug concentration at which a visible growth of microorganisms was inhibited. All experiments were conducted in triplicate and included positive (growth) and negative (sterility) controls.

[2] = test system: S. aureus ATCC 12598; assay type: cell-based, Staphylococcus aureus; details: ATCC 12598, 18 h
Protocol: as §1

[3] = test system: S. aureus ATCC 9144; assay type: cell-based, Staphylococcus aureus; details: ATCC 9144, 18 h
Protocol: as §1

[4] = test system: S. aureus ATCC 33591 (MRSA); assay type: cell-based, Staphylococcus aureus; details: ATCC 33591, 18 h
Protocol: as §1

[5] = test system: S. aureus ATCC 25923; assay type: cell-based, Staphylococcus aureus; details: ATCC 25923, 18 h
Protocol: as §1

[6] = test system: P. aeruginosa ATCC 9027; assay type: cell-based, Pseudomonas aeruginosa; details: ATCC 9027, 18 h
Protocol: as §1

[7] = test system: E. faecium ATCC 700221; assay type: cell-based, Enterococcus faecium; details: ATCC 700221, 18 h
Protocol: as §1

[8] = test system: A. baumannii ATCC BAA-1605; assay type: cell-based, Acinetobacter baumannii; details: ATCC BAA-1605, 18 h
Protocol: as §1

[9] = test system: S. aureus ATCC 25923 biofilm; assay type: cell-based, Staphylococcus aureus; details: ATCC 25923, 24 h
Protocol: (§2) The MBECs values were determined according to the method reported previously. Briefly, 24-h cultures of S. aureus, namely: S. aureus ATCC 25923, S. aureus ATCC 6538, S. aureus ATCC 33591 (MRSA), S. aureus ATCC 9144 and S. aureus ATCC 12598 were diluted to a concentration of 0.5 × 10^7 CFU/mL and added to the test wells of polystyrene microdilution flat-bottom plates. After 24-h of incubation at 37 °C, the wells were rinsed three times with PBS to remove non-adherent cells. Subsequently, 100 μL of the test compounds over a concentration range 0.5–256 µg/mL were added to each well and incubated again for 24 h at 37 °C. After this period, 20 μL of the resazurin (7-hydroxy-3H-phenoxazin-3-one-10-oxide, 4 mg/mL) solution was added to each well. After 1 h of incubation, the MBECs were read out. The determined values were recorded as the lowest concentration at which the reduction of resazurin (from blue to pink) was lower or equal to 10 ± 0.5% as compared to the positive (100%) and negative (0%) controls. All experiments were performed in triplicate.

[10] = test system: S. aureus ATCC 12598 biofilm; assay type: cell-based, Staphylococcus aureus; details: ATCC 12598, 24 h
Protocol: as §2

[11] = test system: S. aureus ATCC 33591 (MRSA) biofilm; assay type: cell-based, Staphylococcus aureus; details: ATCC 33591, 24 h
Protocol: as §2

[12] = test system: S. aureus ATCC 9144 biofilm; assay type: cell-based, Staphylococcus aureus; details: ATCC 9144, 24 h
Protocol: as §2

[13] = test system: S. aureus ATCC 6538 biofilm; assay type: cell-based, Staphylococcus aureus; details: ATCC 6538, 24 h
Protocol: as §2

[14] = test system: human keratinocytes (HaCaT); assay type: cell-based; details: 24 h
Protocol: The cytotoxicity of test compounds (IC50) was evaluated for human keratinocytes (HaCaT, ATCC) using classic MTT assay on 96-well plates. In this assay, a colorimetric determination of the cell metabolic activity was carried out. Specifically, the color intensity reflects the number of live cells that can be measured spectrophotometrically. […] A day after plating 500 cells per well, a series of concentrations (0.5–500 μg/mL) of the test compounds were added. Dimethyl sulfoxide (DMSO) was used as a control in cells at a final concentration of 1.0% (v/v), which was related to the maximal concentration of the solvent compounds used in the experiment. After 24 h of incubation with test compounds, a medium containing 1 mg/mL of MTT was added up to a final concentration of 0.5 mg/mL and subsequently incubated at 37 °C for 4 h. Then, the medium was aspirated and the formazan product was solubilized with DMSO. The background absorbance at 630 nm was subtracted from that at 570 nm for each well (Epoch, BioTek Instruments, Winooski, VT, USA). Six replicates were conducted for each concentration. All experiments were repeated at least twice and the resulting IC50 values were calculated with a GraFit 7 software (v. 7.0, Erithacus, Berkley, CA, USA).

[15] = test system: reference strains of S. aureus; assay type: cell-based, Staphylococcus aureus; details: reference strains of, 24 h
Protocol: as §1, with “For this purpose, initial inoculums of bacteria (0.5 × 10^5 colony forming unit (CFU)/mL) in Mueller–Hinton Broth were exposed to the ranging concentrations of compounds (0.5–256 µg/mL) and incubated for 18 h at 37 °C.” left out

[16] = test system: K. aerogenes ATCC 13048; assay type: cell-based, Klebsiella aerogenes; details: ATCC 13048, 18 h
Protocol: as §1

[17] = test system: K. pneumoniae ATCC 700603; assay type: cell-based, Klebsiella pneumoniae; details: ATCC 700603, 18 h
Protocol: as §1

Row | Compound | MIC [1] [µg/mL] | MIC [2] [µg/mL] | MIC [3] [µg/mL] | MIC [4] [µg/mL] | MIC [5] [µg/mL] | MIC [6] [µg/mL] | MIC [7] [µg/mL] | MIC [8] [µg/mL] | MBEC [9] [µg/mL] | MBEC [10] [µg/mL] | MBEC [11] [µg/mL] | MBEC [12] [µg/mL] | MBEC [13] [µg/mL] | IC50 [14] [µg/mL] | GM (geometric mean of the MIC values against S. aureus) [15] [µg/mL] | MIC [16] [µg/mL] | MIC [17] [µg/mL]
1 | CCCC(=O)N[C@@H](CCCCN)C(=O)N[C@@H](CCCNC(=N)N)C(=O)N[C@H](C(=O)N[C@H](C(=O)N[C@@H](CCC(N)=O)C(=O)N[C@@H](CCCNC(=N)N)C(=O)N[C@H](C(=O)N[C@@H](CCCCN)C(=O)N[C@@H](CC(=O)O)C(=O)N[C@@H](Cc1ccccc1)C(=O)N[C@@H](CC(C)C)C(=O)N[C@@H](CCCNC(=N)N)C(N)=O)[C@@H](C)CC)C(C)C)[C@@H](C)CC [II, C4-KR12-NH2] (Butyryl-KRIVQRIKDFLR-NH2) | 32 (≈ 19.5 µM) | 64 (≈ 39 µM) | 64 (≈ 39 µM) | 128 (≈ 78 µM) | 128 (≈ 78 µM) | 32 (≈ 19.5 µM) | 4 (≈ 2.44 µM) | >256 | 256 | 128 | 128 | 128 | 128 | 38.73 (≈ 23.6 µM) | 73.52 | 128 (≈ 78 µM) | 128 (≈ 78 µM)
2 | CCCCCC(=O)N[C@@H](CCCCN)C(=O)N[C@@H](CCCNC(=N)N)C(=O)N[C@H](C(=O)N[C@H](C(=O)N[C@@H](CCC(N)=O)C(=O)N[C@@H](CCCNC(=N)N)C(=O)N[C@H](C(=O)N[C@@H](CCCCN)C(=O)N[C@@H](CC(=O)O)C(=O)N[C@@H](Cc1ccccc1)C(=O)N[C@@H](CC(C)C)C(=O)N[C@@H](CCCNC(=N)N)C(N)=O)[C@@H](C)CC)C(C)C)[C@@H](C)CC [III, C6-KR12-NH2] (Hexanoyl-KRIVQRIKDFLR-NH2) | 4 (≈ 2.4 µM) | 8 (≈ 4.79 µM) | 8 (≈ 4.79 µM) | 16 (≈ 9.59 µM) | 16 (≈ 9.59 µM) | 8 (≈ 4.79 µM) | 2 (≈ 1.2 µM) | 16 (≈ 9.59 µM) | 32 | 16 | 16 | 16 | 16 | 10.13 (≈ 6.07 µM) | 9.19 | 16 (≈ 9.59 µM) | 16 (≈ 9.59 µM)
3 | CCCCCCCCCC(=O)N[C@@H](CCCCN)C(=O)N[C@@H](CCCNC(=N)N)C(=O)N[C@H](C(=O)N[C@H](C(=O)N[C@@H](CCC(N)=O)C(=O)N[C@@H](CCCNC(=N)N)C(=O)N[C@H](C(=O)N[C@@H](CCCCN)C(=O)N[C@@H](CC(=O)O)C(=O)N[C@@H](Cc1ccccc1)C(=O)N[C@@H](CC(C)C)C(=O)N[C@@H](CCCNC(=N)N)C(N)=O)[C@@H](C)CC)C(C)C)[C@@H](C)CC [V, C10-KR12-NH2] (Decanoyl-KRIVQRIKDFLR-NH2) | 4 (≈ 2.32 µM) | 4 (≈ 2.32 µM) | 4 (≈ 2.32 µM) | 4 (≈ 2.32 µM) | 4 (≈ 2.32 µM) | 8 (≈ 4.64 µM) | 2 (≈ 1.16 µM) | 8 (≈ 4.64 µM) | 32 | 8 | 32 | 16 | 32 | 5.97 (≈ 3.46 µM) | 4.00 | 16 (≈ 9.27 µM) | 16 (≈ 9.27 µM)
4 | CCCCCCCCCCCC(=O)N[C@@H](CCCCN)C(=O)N[C@@H](CCCNC(=N)N)C(=O)N[C@H](C(=O)N[C@H](C(=O)N[C@@H](CCC(N)=O)C(=O)N[C@@H](CCCNC(=N)N)C(=O)N[C@H](C(=O)N[C@@H](CCCCN)C(=O)N[C@@H](CC(=O)O)C(=O)N[C@@H](Cc1ccccc1)C(=O)N[C@@H](CC(C)C)C(=O)N[C@@H](CCCNC(=N)N)C(N)=O)[C@@H](C)CC)C(C)C)[C@@H](C)CC [VI, C12-KR12-NH2] (Lauroyl-KRIVQRIKDFLR-NH2) | 32 (≈ 18.3 µM) | 32 (≈ 18.3 µM) | 32 (≈ 18.3 µM) | 16 (≈ 9.13 µM) | 32 (≈ 18.3 µM) | 32 (≈ 18.3 µM) | 4 (≈ 2.28 µM) | 16 (≈ 9.13 µM) | 256 | 32 | 128 | 64 | 256 | 7.60 (≈ 4.33 µM) | 27.86 | 32 (≈ 18.3 µM) | 32 (≈ 18.3 µM)
